Assay results reported in US8476408B2, “Unacylated ghrelin and analogs as therapeutic agents for vascular remodeling in diabetic patients and treatment of cardiovascular disease” (Alize Pharma SAS, priority 2008, dated 2013).
Where no end group is shown, it is not given here.

Legend:
CAC [1] = assay: CAC cell-cycle progression (S phase, FACS); format: cell-based, human; conditions: cultured CAC, still evident after 7 days; FIG. 1A
Experimental: Peripheral-blood mononuclear cells (PB-MNC) isolated by Fycoll Histopaque 1077 (Sigma) were resuspended in 20% FBS 199 Medium and plated on fibronectin-coated dishes (Biocoat, Becton Dickinson Labware) as described by Hill et al. (Ref. 19). Human UAG studies were performed on CAC recovered from normal donors and diabetic patients. The purity of sorted cells was assessed by FACS analysis (Ref. 20). For experiments, the isolated CAC were cultured under 5% CO2 at 37° C. for 4 days on 20 μg/ml fibronectin-coated dishes in EGM-2 medium containing 10% FBS, hydrocortisone, human Fibroblast Growth Factor, Vascular Endothelial Growth Factor, Insulin Growth Factor 1, ascorbic acid, human Epidermal Growth Factor, gentamicin and amphotericin-B (Cambrex, Walkersville, Md., USA) alone or in combination with 1 μM UAG and 1.2 mg/ml AGE. In selected experiments, isolated CAC were cultured in EBM-2 medium (Cambrex, Walkersville, Md., USA) supplemented with 10 ng/ml of IL-3. […]
Flow Cytometry—To analyze CAC cell-cycle progression, cells recovered from diabetic, healthy subjects, NOD/SCID, ob/ob and wt mice, were cultured in EBM-2 supplemented with IL-3 (10 ng/ml), FACS analysis was performed as previously described (Ref. 20). Cell surface molecules were evaluated by flow cytometry as previously described (Ref. 24). Frequency of marker-positive cells is expressed as mean±standard deviation (SD).

CAC [2] = assay: Arterial specification of recovered human CAC (Q-RT-PCR of Ephrin B2, Notch1, Notch4, EphB4); format: in vivo; conditions: cells from treated patients cultured with IL-3; FIG. 3D
Experimental: RNA isolation and quantitative real-time PCR—CAC from diabetic patients, healthy subjects and mice treated with UAG or saline were cultured in EGM-2 medium. Human arterial and venous cells were used as a positive controls. mRNA quantification was performed by Q-RT-PCR, as previously described (Ref. 24). The relative expression of Ephrin B2, Notch1, Notch4 and EphB4 were calculated by using comparative threshold cycle methods. The human and murine primer sequences used were described (Refs. 25, 26).

GHSR-1a = GHSR-1a (Homo sapiens, UniProt Q92847); conditions: cited from earlier work
Sequence of GHSR-1a (Q92847 whole entry): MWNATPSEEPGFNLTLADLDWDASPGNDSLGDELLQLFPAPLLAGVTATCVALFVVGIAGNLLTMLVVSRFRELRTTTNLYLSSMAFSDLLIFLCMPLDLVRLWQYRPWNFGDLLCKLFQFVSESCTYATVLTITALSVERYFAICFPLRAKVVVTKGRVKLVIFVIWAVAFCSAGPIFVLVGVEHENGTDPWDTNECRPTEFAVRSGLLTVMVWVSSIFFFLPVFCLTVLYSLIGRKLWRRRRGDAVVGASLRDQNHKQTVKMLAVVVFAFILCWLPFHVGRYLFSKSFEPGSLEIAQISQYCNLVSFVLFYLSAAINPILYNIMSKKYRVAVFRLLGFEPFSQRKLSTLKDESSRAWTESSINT

CAC membranes = assay: Competition binding with [125I-Tyr4]-UAG on CAC membranes; design: species or system human; conditions: 100 nM unlabelled competitor, radioligand 0.25 nM; FIG. 5A
Excerpt: The specific binding of [^125I-Tyr^4]-UAG (calculated as difference between binding in the absence, control, and in the presence of UAG) represented about 75% of the control value (P<0.001) and was detected either on fresh (0.25 and 0.26 fmol) or frozen-thawed (0.20 and 0.33 fmol) CAC membranes from two different cell preparations.

inhibition of binding of [125I-Tyr4]-UAG to CAC membranes (CAC membranes): inhibited
Substance: 1-NH2Gly-Ser-Ser-Phe-Leu-Ser-Pro-Glu-His-Gln-Arg-Val-Gln-Gln-Arg-Lys-Glu-Ser-Lys-Lys-Pro-Pro-Ala-Lys-Leu-Gln-Pro-Arg-28 (GSSFLSPEHQRVQQRKESKKPPAKLQPR; ends and bridges not checked; listed as Homo sapiens) [UAG]
percentage of cells in S phase (CAC [1]): significant increase in the percentage of cells in S phase
arterial specification (Ephrin B2, Notch1, Notch4 vs EphB4) (CAC [2]): able to undergo arterial specification
binding to GHSR-1a (GHSR-1a): fails to bind GHSR-1a
